Data: patent US11833160B2, “Ursodeoxycholic acid derivatives as HDAC inhibitors for the treatment of polycystic diseases” (UNIVERSIDAD DEL PAIS VASCO/EUSKAL HERRIKO UNIBERTSITATEA, priority 2017, dated 2023)

Columns and labels:
human HDAC6 = target: T1, human HDAC6 (Homo sapiens, UniProt Q9UBN7); assay: HDAC6 enzymatic activity assay (fluorogenic peptide); type: biochemical; details: for IC50: 10-dose, 3-fold serial dilution, triplicate; for HDAC6 selectivity proportion: matches IC50 HDAC1 / IC50 HDAC6
T1 construct: GST (N); purchased BioMol SE-508; host or cells: baculovirus / Sf9 cells
T1 sequence (Q9UBN7 1-1215): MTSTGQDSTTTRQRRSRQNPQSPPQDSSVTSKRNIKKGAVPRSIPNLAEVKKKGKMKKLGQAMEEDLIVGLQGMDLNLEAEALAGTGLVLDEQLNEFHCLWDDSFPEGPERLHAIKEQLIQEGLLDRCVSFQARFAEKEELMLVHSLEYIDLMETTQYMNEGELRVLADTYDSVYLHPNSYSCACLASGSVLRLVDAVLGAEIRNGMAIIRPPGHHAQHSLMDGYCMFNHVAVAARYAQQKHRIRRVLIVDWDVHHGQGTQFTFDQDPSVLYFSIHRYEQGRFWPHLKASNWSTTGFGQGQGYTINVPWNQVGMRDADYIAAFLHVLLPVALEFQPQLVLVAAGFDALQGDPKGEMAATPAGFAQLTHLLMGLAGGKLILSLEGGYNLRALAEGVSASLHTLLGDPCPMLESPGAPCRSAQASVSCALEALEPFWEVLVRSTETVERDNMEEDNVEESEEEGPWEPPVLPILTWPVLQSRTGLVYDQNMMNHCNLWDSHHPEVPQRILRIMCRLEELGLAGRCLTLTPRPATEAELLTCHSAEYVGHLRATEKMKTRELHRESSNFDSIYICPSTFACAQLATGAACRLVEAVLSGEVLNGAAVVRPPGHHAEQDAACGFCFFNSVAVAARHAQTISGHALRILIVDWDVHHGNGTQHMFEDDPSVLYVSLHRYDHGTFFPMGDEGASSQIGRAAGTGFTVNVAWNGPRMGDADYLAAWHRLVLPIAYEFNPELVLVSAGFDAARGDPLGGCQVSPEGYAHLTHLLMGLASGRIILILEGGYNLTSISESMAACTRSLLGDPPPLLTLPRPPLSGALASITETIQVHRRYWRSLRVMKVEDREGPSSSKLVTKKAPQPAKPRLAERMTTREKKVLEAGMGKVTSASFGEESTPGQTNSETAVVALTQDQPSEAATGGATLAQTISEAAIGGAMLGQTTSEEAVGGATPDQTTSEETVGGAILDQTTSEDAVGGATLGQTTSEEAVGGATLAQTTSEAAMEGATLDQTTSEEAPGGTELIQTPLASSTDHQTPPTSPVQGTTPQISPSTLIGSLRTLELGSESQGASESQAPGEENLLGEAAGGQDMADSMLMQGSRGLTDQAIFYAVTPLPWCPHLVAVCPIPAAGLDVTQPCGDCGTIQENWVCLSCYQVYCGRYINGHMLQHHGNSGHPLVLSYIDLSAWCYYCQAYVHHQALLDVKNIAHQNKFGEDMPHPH
Method: (§1) Peptide substrates: all HDAC assays were performed using acetylated peptide substrates labeled with 7-amino-4-methylcoumarin (AMC): • Substrate for isoforms HDAC1, 2, 3, 6, 10, 11, and HeLa nuclear extract assays: acetylated fluorogenic peptide from p53 residues 379-382 (RHKKAc). • Substrate for isoforms HDAC4, 5, 7, 9: fluorogenic Boc-L-Lys (s-trifluoroacetyl)-AMC. • Substrate for HDAC8 assays: acetylated fluorogenic peptide from p53 residues 379-382 (RHKAcKAc).
(§2) 50 μl of peptide substrate (see “peptide substrates” section above) and an optimal concentration of the corresponding enzyme (see “enzymes” section above) in the assay buffer at a final DMSO concentration of 1% were incubated in the presence of gradient concentrations of inhibitors (10-dose IC50 mode with 3-fold serial dilution) at 30° C. for 2 hours. The reactions were carried out in a 96-well microplate for fluorometry in a 50 μl reaction volume. After the deacetylation reaction, Fluor-de-Lys-Developer (BioMol Cat. #KI-105) was added to each well to digest the deacetylated substrate, thereby producing the fluorescent signal. The reaction was carried out for 45 minutes at 30° C. with 5% CO2; the fluorescent signal was then measured using an excitation wavelength of 360 nm and an emission wavelength of 460 nm in a microplate-reading fluorometer (GeminiXS, Molecular Devices, Sunnyvale, CA). A curve of deacetylated standard (Biomol, Cat. #KI-142; made from 100 μM with 1:2 dilution and 10 doses, 6 μl) allowed the conversion of the fluorescent signal into micromoles of deacetylated product. All experiments were performed in triplicate. The IC50s were calculated by fitting the experimental data to dose-response curve. DMSO was used as negative control; Trichostatin A (Biomol Cat. #GR-309) was used as positive control inhibitor.
(§3) Enzymatic activity assays were carried out in 11 HDAC enzymes, including HDAC6.

human HDAC1 = target: T2, human HDAC1 (Homo sapiens, UniProt Q13547); assay: HDAC1 enzymatic activity assay (fluorogenic peptide); type: biochemical; details: for IC50: 10-dose, 3-fold serial dilution, triplicate
T2 construct: GST (C); purchased BioMol SE-456; host or cells: baculovirus / Sf9 cells
Method: as §1, §2, §3

human HDAC2 = target: T3, human HDAC2 (Homo sapiens, UniProt Q92769); assay: HDAC2 enzymatic activity assay (fluorogenic peptide); type: biochemical; details: 10-dose, 3-fold serial dilution, triplicate
T3 construct: His (C); purchased BioMol SE-500; host or cells: baculovirus / Sf9 cells
Method: as §1, §2, §3

HDAC enzymes = assay: Enzymatic activity assays in 11 HDAC enzymes (statements on the panel); type: biochemical, human; details: for inhibitory capacity with respect to the rest of the HDAC enzymes: HDAC enzymes other than HDAC6
Method: as §1, §2, §3

human HDAC8 = target: T4, human HDAC8 (Homo sapiens, UniProt Q9BY41); assay: HDAC8 enzymatic activity assay (fluorogenic peptide); type: biochemical; details: 10-dose, 3-fold serial dilution, triplicate
T4 construct: purchased BioMol SE-145; host or cells: E. coli
T4 sequence (Q9BY41 1-377): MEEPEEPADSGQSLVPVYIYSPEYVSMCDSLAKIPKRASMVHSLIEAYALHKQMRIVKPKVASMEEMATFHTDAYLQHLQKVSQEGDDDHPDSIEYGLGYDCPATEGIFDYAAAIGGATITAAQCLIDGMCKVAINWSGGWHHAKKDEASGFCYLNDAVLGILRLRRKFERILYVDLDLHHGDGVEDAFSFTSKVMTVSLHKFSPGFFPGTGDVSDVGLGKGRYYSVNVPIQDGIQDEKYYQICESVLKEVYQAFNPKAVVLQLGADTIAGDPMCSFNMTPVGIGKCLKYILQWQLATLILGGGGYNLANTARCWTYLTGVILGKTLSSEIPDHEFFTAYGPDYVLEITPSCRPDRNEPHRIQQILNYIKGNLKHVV
Method: as §1, §2, §3

human HDAC5 = target: T5, human HDAC5 (Homo sapiens, UniProt Q9UQL6); assay: HDAC5 enzymatic activity assay (fluorogenic peptide); type: biochemical; details: 10-dose, 3-fold serial dilution, triplicate
T5 construct: GST (N); purchased BioMol, Hamburg, Germany; host or cells: baculovirus / Sf9 cells
Method: as §1
50 μl of peptide substrate (see “peptide substrates” section above) and an optimal concentration of the corresponding enzyme (see “enzymes” section above) in the assay buffer at a final DMSO concentration of 1% were incubated in the presence of gradient concentrations of inhibitors (10-dose IC50 mode with 3-fold serial dilution) at 30° C. for 2 hours. The reactions were carried out in a 96-well microplate for fluorometry in a 50 μl reaction volume. After the deacetylation reaction, Fluor-de-Lys-Developer (BioMol Cat. #KI-105) was added to each well to digest the deacetylated substrate, thereby producing the fluorescent signal. The reaction was carried out for 45 minutes at 30° C. with 5% CO2; the fluorescent signal was then measured using an excitation wavelength of 360 nm and an emission wavelength of 460 nm in a microplate-reading fluorometer (GeminiXS, Molecular Devices, Sunnyvale, CA). […]

human HDAC7 = target: T6, human HDAC7 (Homo sapiens, UniProt Q8WUI4); assay: HDAC7 enzymatic activity assay (fluorogenic peptide); type: biochemical; details: 10-dose, 3-fold serial dilution, triplicate
T6 construct: amino acids 518 end with GST N-terminal tag, MW=78 kDa; GST (N); purchased BioMol, Hamburg, Germany; host or cells: baculovirus expression system
T6 sequence (Q8WUI4 479-952 limits assumed): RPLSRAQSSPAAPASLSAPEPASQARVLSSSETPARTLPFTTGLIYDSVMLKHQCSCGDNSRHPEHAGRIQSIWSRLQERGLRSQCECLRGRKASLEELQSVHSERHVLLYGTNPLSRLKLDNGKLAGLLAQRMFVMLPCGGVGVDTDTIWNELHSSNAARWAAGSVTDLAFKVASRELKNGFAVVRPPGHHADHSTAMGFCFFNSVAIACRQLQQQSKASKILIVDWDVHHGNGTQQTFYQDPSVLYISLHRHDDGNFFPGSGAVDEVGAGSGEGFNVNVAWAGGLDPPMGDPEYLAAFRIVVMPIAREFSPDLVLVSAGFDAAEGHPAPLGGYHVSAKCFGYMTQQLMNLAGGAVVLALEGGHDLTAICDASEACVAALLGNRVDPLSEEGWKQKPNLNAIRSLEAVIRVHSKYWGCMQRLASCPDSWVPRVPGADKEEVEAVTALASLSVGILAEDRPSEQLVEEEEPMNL
Method: as §1, §2, §3

T2 sequence (Q13547 whole entry): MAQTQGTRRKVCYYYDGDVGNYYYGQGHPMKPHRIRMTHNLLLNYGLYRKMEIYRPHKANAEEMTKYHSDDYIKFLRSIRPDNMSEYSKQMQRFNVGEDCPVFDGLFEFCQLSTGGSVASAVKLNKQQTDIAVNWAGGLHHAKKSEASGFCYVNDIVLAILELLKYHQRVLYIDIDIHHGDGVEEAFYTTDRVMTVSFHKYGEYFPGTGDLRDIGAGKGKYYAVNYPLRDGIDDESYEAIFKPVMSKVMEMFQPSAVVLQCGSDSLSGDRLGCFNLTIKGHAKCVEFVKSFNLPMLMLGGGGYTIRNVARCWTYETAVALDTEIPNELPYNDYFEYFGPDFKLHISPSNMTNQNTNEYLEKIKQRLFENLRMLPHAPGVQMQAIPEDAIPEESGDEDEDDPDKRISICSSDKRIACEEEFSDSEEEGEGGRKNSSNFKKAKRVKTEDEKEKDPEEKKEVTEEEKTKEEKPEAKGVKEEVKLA
T3 sequence (Q92769 whole entry): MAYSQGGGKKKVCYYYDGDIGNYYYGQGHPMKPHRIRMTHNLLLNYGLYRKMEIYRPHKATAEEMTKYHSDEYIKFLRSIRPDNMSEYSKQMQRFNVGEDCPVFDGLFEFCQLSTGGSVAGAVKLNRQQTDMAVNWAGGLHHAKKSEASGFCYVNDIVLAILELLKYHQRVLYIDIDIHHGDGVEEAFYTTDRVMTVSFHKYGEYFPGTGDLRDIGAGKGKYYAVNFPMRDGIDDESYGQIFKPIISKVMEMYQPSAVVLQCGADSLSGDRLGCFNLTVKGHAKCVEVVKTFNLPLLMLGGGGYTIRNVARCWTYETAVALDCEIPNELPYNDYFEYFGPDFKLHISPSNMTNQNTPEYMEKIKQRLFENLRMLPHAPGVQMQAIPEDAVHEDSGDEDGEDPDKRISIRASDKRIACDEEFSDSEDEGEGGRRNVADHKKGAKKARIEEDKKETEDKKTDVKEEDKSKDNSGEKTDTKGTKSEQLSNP
T5 sequence (Q9UQL6 1-1123 isoform Q9UQL6-3): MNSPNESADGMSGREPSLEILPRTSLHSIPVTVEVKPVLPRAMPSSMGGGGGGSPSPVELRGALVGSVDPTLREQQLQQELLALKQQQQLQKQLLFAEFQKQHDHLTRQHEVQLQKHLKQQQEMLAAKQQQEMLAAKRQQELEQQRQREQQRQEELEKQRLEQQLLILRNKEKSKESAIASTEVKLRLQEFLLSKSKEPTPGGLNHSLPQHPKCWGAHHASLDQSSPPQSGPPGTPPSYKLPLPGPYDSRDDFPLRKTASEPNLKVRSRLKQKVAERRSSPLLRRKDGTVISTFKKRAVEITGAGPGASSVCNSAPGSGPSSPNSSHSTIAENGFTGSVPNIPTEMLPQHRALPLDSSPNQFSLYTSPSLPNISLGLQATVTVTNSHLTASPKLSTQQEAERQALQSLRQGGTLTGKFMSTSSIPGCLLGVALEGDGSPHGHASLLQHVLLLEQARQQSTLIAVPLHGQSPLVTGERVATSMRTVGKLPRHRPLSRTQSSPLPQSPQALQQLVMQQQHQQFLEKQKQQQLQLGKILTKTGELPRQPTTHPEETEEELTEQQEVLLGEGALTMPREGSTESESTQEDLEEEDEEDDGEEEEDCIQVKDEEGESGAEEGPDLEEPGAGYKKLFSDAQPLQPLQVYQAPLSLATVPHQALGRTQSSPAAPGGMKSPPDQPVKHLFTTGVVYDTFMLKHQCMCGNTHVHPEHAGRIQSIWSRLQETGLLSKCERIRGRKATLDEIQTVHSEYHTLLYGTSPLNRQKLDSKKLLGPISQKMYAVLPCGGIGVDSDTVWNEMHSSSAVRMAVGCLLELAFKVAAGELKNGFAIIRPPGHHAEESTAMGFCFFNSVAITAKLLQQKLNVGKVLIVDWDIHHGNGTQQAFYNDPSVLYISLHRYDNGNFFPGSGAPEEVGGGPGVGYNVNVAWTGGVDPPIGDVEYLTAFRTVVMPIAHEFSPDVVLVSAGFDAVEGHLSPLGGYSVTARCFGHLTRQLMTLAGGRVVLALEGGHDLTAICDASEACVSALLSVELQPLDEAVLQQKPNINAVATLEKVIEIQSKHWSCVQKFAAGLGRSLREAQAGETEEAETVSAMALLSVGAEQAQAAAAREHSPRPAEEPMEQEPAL

Structure (SMILES): C[C@H](CCC(=O)NCc1ccc(C(=O)Nc2cc(-c3ccccc3)ccc2N)cc1)[C@H]1CC[C@H]2[C@@H]3[C@@H](O)C[C@@H]4C[C@H](O)CC[C@]4(C)[C@H]3CC[C@]12C
- melting point: 163 to 165 °C

Structure (SMILES): C[C@H](CCC(=O)NCCCC(=O)NO)[C@H]1CC[C@H]2[C@@H]3[C@@H](O)C[C@@H]4C[C@H](O)CC[C@]4(C)[C@H]3CC[C@]12C
- melting point: 165 to 167 °C

Structure (SMILES): C[C@H](CCC(=O)NCCS)[C@H]1CC[C@H]2[C@@H]3[C@@H](O)C[C@@H]4C[C@H](O)CC[C@]4(C)[C@H]3CC[C@]12C
- melting point: 116 to 117 °C

Structure (SMILES): C[C@H](NC(=O)CC[C@@H](C)[C@H]1CC[C@H]2[C@@H]3[C@@H](O)C[C@@H]4C[C@H](O)CC[C@]4(C)[C@H]3CC[C@]12C)C(=O)NO
- melting point: 170 to 172 °C

Structure (SMILES): C[C@H](CCC(=O)Nc1ccccc1S)[C@H]1CC[C@H]2[C@@H]3[C@@H](O)C[C@@H]4C[C@H](O)CC[C@]4(C)[C@H]3CC[C@]12C
- melting point: 157 to 158 °C

Structure (SMILES): C[C@H](CCC(=O)NCCC(=O)NO)[C@H]1CC[C@H]2[C@@H]3[C@@H](O)C[C@@H]4C[C@H](O)CC[C@]4(C)[C@H]3CC[C@]12C
- melting point: 180 to 182 °C

Structure (SMILES): C[C@H](CCC(=O)NCc1ccc(C(=O)Nc2ccccc2N)cc1)[C@H]1CC[C@H]2[C@@H]3[C@@H](O)C[C@@H]4C[C@H](O)CC[C@]4(C)[C@H]3CC[C@]12C [Ii, N-(2-aminophenyl)-4-(((R)-4-((3R,5S,7S,8R,9S,10S,13R,14S,17R)-3,7-dihydroxy-10,13-dimethylhexadecahydro-1H-cyclopenta[a]phenanthren-17-yl)pentanamide)methyl)benzamide]
- IC50 (human HDAC6): 8.08 µM
- IC50 (human HDAC1): 0.14 µM
- HDAC1 selectivity proportion (human HDAC1; matches IC50 HDAC6 / IC50 HDAC1): 58
- IC50 (human HDAC2): 0.516 µM
- melting point: 168 to 170 °C

Structure (SMILES): C[C@H](CCC(=O)NCCCCCC(=O)NO)[C@H]1CC[C@H]2[C@@H]3[C@@H](O)C[C@@H]4C[C@H](O)CC[C@]4(C)[C@H]3CC[C@]12C [If, 6-((R)-4-((3R,5S,7S,8R,9S,10S,13R,14S,17R)-3,7-dihydroxy-10,13-dimethylhexadecahydro-1H-cyclopenta[a]phenanthren-17-yl)pentanamide)-N-hydroxyhexanamide]
- selectivity and inhibitory capacity with respect to HDAC6 enzyme (human HDAC6): nanomolar range
- IC50 (human HDAC6): 0.0821 µM
- HDAC6 selectivity proportion (human HDAC6): 31
- inhibitory capacity with respect to the rest of the HDAC enzymes (HDAC enzymes): micromolar range
- IC50 (human HDAC1): 2.57 µM
- melting point: 125 to 127 °C

Structure (SMILES): C[C@H](CCC(=O)NCc1ccc(C(=O)NO)o1)[C@H]1CC[C@H]2[C@@H]3[C@@H](O)C[C@@H]4C[C@H](O)CC[C@]4(C)[C@H]3CC[C@]12C
- melting point: 149 to 151 °C

Structure (SMILES): NCc1ccc(C(=O)NO)cc1 [4-(aminomethyl)-N-hydroxybenzamide, reference compound]
- IC50 (human HDAC8): 13.6 µM
- IC50 (human HDAC5): 435 µM
- IC50 (human HDAC7): 14.7 µM

Structure (SMILES): C[C@H](CCC(=O)NCc1ccc(C(=O)NCc2ccc(C(=O)NO)cc2)cc1)[C@H]1CC[C@H]2[C@@H]3[C@@H](O)C[C@@H]4C[C@H](O)CC[C@]4(C)[C@H]3CC[C@]12C [Ig, 4-(((R)-4-((3R,5S,7S,8R,9S,10S,13R,14S,17R)-3,7-dihydroxy-10,13-dimethylhexadecanohydro-1H-cyclopenta[a]phenanthren-17-yl)pentanamido)methyl)-N-(4-(hydroxycarbamoyl)benzyl)benzamide]
- selectivity and inhibitory capacity with respect to HDAC6 enzyme (human HDAC6): nanomolar range
- IC50 (human HDAC6): 0.00426 µM
- HDAC6 selectivity proportion (human HDAC6): 3574
- inhibitory capacity with respect to the rest of the HDAC enzymes (HDAC enzymes): micromolar range
- IC50 (human HDAC1): 15.2 µM
- melting point: 187 to 189 °C

Structure (SMILES): C[C@H](CCC(=O)O)[C@H]1CC[C@H]2[C@@H]3[C@@H](O)C[C@@H]4C[C@H](O)CC[C@]4(C)[C@H]3CC[C@]12C [UDCA, ursodeoxycholic acid]
- inhibitory activity on any HDAC (HDAC enzymes; in the assayed concentration range): no inhibitory activity whatsoever
